{"source": "paper PMC7324608", "about": "(Scientific Reports, 2020)", "key": {"[1]": {"target": "T1, HpHtrA wt (Helicobacter pylori, UniProt G2J5T2)", "T1 sequence (G2J5T2 18-475)": "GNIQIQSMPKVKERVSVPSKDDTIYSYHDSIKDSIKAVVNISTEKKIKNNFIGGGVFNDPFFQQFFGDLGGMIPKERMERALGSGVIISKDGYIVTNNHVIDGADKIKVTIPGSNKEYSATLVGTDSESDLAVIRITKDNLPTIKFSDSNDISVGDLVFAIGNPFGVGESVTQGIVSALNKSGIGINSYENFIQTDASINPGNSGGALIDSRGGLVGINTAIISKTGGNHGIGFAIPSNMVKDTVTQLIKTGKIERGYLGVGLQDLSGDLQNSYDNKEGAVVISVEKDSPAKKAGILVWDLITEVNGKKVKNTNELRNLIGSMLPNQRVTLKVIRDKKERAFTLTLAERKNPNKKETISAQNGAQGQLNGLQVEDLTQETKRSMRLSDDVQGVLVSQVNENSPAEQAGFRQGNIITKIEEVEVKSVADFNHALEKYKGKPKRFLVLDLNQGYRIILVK", "assay": "biochemical", "experimental": "(§1) Synthesis of 2-Abz-AQRVAFY(3-NO2)-NH2. The peptide was assembled manually on a 20 µmol scale.\n(§2) The side-chain protecting groups were Pbf for Arg, and Trt for Gln. Fmoc deprotection was carried out with 25% piperidine in DMF/NMP (80:20, v/v) for 3 min, and 12.5% piperidine in DMF/NMP (80:20, v/v) for 12 min. The double couplings (2x45 min) were accomplished with the mixture Fmoc-AA-OH/HOBt/HBTU/DIPEA (5:5:4.8:10 equiv.). 2 -Boc-Abz-OH was coupled with the same protocol.\n(§3) Afterwards, the peptidyl-resin was treated with 25% piperidine in DMF/NMP (80:20, v/v) (2x12 min) to deacylate the 3-nitro-tyrosine side chain. The peptide was simultaneously cleaved from the resin and deprotected by using the mixture TFA/H2O/TIA/EDT/TIS (90:3:1:3:3; Vtot = 1 ml) for about 3 h, precipitated from ice-cold diethyl ether, recovered by centrifugation at 4 °C for 6 min, washed four times with ice-cold diethyl ether, and dried in vacuo. The solid was dissolved in water and lyophilized.\n(§4) Microscale thermophoresis .\n(§5) D168A, MicroScale Thermophoresis (MST) analysis was performed using the Monolith NT.115 (NanoTemper Technologies). HpHtrA proteases were labeled with red fluorescent dye NT -650-NHS (amine reactive) according to the manufacturer’s protocol. Remaining free dye was removed by buffer exchange column chromatography and proteins were eluted in 50 mM Tris pH 7.4, 150 mM NaCl, 0.04% Tween. 5 nM of labelled HpHtrA was incubated for 15 minutes at RT with decreasing […]\n(§6) Measurement was performed with premium treated capillaries (NanoTemper Technologies) and the Monolith NT.115 Microscale Thermophoresis device. Data analysis was performed with MO.Affinity Analysis v2.3 (NanoTemper Technologies) and GraphPad Prism Software (Version 8.0.2). Three independent experiments were […]"}, "[2]": {"target": "T2, HpHtrA D165A (Helicobacter pylori, UniProt G2J5T2, D165A)", "T2 sequence (G2J5T2 18-475 D165A)": "T1 sequence (G2J5T2 18-475) with D148A", "settings": "MST", "experimental": "as §1, §2, §3, §4, §5, §6"}, "[3]": {"target": "T3, HpHtrA D168A (Helicobacter pylori, UniProt G2J5T2, D168A)", "T3 sequence (G2J5T2 18-475 D168A)": "T1 sequence (G2J5T2 18-475) with D151A", "settings": "MST", "experimental": "as §1, §2, §3, §4, §5, §6"}, "[4]": {"target": "T4, HpHtrA S166A (Helicobacter pylori, UniProt G2J5T2, S166A)", "T4 sequence (G2J5T2 18-475 S166A)": "T1 sequence (G2J5T2 18-475) with S149A", "settings": "MST", "experimental": "as §1, §2, §3, §4, §5, §6"}, "[5]": {"system": "HtrA homolog A (HhoA)", "settings": "cited from earlier work"}}, "note": "Residue numbers refer to the chain shown, from its start.", "data": [{"smiles": "[Zn+2]", "note": "[Zn^++, ZnCl2]", "values": [{"measurement": "Kd", "setting": "[1]", "result": "23 ± 12", "unit": "µM"}, {"measurement": "Response amplitude", "setting": "[1]; MST, 5 nM labelled HpHtrA wt, ZnCl2 1 mM - 30.5 nM", "result": 4.3}, {"measurement": "S/N (signal to noise ratio)", "setting": "[1]; MST, HpHtrA wt", "result": 6.3}, {"measurement": "Response amplitude", "setting": "[2]", "result": 3.6}, {"measurement": "Response amplitude", "setting": "[3]", "result": 2.7}, {"measurement": "Response amplitude", "setting": "[4]", "result": 3.9}, {"measurement": "effect on HhoA in a casein cleavage assay", "setting": "[5]", "result": "inactivates"}]}]}
